The values that follow are results of earlier work, collected in paper PMC10761933, “Acquired and intrinsic resistance to vemurafenib in BRAF^V600E ‐driven melanoma brain metastases” (FEBS Open Bio, 2023).

In one series the test system is A375 cells. To be noted: read-out: IC50 against A375 cells; cited from earlier work.
For series [1] the following is noted: WT mice; cited from earlier work.
Series [2] has as its system melanoma brain metastases. To be noted: MBM patients, treatment alone; cited from earlier work.
The conditions of series [3]: mice; stated without reference; cited from earlier work.

Broadly, the IC50 is the concentration that gives 50% inhibition. In the case of `CC(C)(C)c1nc(-c2cccc(NS(=O)(=O)c3c(F)cccc3F)c2F)c(-c2ccnc(N)n2)s1` [dabrafenib], the concentration for half-maximal inhibition (IC50) with A375 cells is 4 nM. The “brain–plasma ratio” value in series [1] is reported as “approximately 0.1”. Further, the median overall survival in series [2] is 7 months.
In the case of `COc1cc2c(cc1OC)CN(CCc1ccc(NC(=O)c3cccc4c(=O)c5cccc(OC)c5[nH]c34)cc1)CC2` [elacridar], the “t max of oral elacridar” value in series [3] was about 4 h.
For the compound `COC(=O)N[C@@H](C)CNc1nccc(-c2cn(C(C)C)nc2-c2cc(Cl)cc(NS(C)(=O)=O)c2F)n1` [encorafenib], the IC50 with A375 cells was 4 nM. In series [1], the “brain–plasma ratio” value is listed as “roughly 0.004”.
